Paper PMC9321894, “Design and Anticancer Properties of New Water-Soluble Ruthenium–Cyclopentadienyl Complexes” (Pharmaceuticals, 2022)
Like-named read-outs stand apart in the source and are kept apart here. Marks after values point to notes of the source that are not given here.

Key:
[1] = tested on: A2780 ovarian cancer cells; set-up: method as in PMID 21450266, PMID 20200702, PMID 20422091; settings: A2780, 72 h; cited from earlier work
[2] = tested on: MDAMB231 triple-negative breast cancer cells; set-up: method as in PMID 21450266, PMID 20200702, PMID 20422091; settings: MDAMB231, 72 h; cited from earlier work
HT29 colon cancer cells [3] = tested on: HT29 colon cancer cells; set-up: method as in PMID 21450266, PMID 20200702, PMID 20422091; settings: HT29, 72 h; cited from earlier work
Solubility in water = format: physicochemical; settings: in presence of air, 25 °C
[4] = Stability in water in presence of air (UV-vis, 1H and 31P NMR); format: physicochemical; settings: for Stability in water, Time / Stability in water, Time (Days): in presence of air, 25 °C, time without hydrolysis
Procedure: The stability of all the complexes in water was evaluated by ^31P NMR and UV–visible spectroscopies. Generally, a 5 mm NMR tube was charged in the air with the 10 mg of each complex and D2O (0.8 mL). ^1H NMR and ^31P NMR were monitored for four days to evaluate if there was any decomposition product. Decomposition/instability of the compound can be assessed by the disappearance of the NMR signals and/or by the appearance of new signals that could not be assigned to the known complex, beyond the appearance of free mTPPMS phosphine signals. Any eventual changes in the charge transfer bands between ruthenium and ligands were followed by UV–visible in the 300–900 nm range.

[5] = n-Octanol/water partition coefficient, shake-flask method; format: physicochemical; settings: room temperature
Procedure: The lipophilicity of the complexes was measured by the shake-flask method. Distilled water and n-octanol were mixed vigorously for 24 h at 25 °C, to promote solvent saturation in both phases, before the experiments. […] Aliquots of stock solutions were equilibrated with octanol for 4 h in a mechanical shaker. The phase ratio was 2 mL/2 mL (water/n-octanol). The aqueous and octanol layers were carefully separated (by centrifugation at 5000 rpm for 10 min), and UV–vis absorption spectra of the compounds were registered in both phases. The concentration for each sample was determined using the calibration curve. Triplicate experiments have been performed for each complex and the averages were calculated.

[6] = tested on: A2780 ovarian cancer cells; assay: MTT cytotoxicity assay, A2780; format: cell-based, human; settings: A2780, 72 h, mean ± SD n = 3
Procedure: (§1) The cytotoxic activity of all complexes was screened against A2780 (ovarian, Sigma-Aldrich, Lisboa, Portugal), MDAMB231 (breast, triple negative, ATCC), and HT29 (colon, ATCC) human cancer cells. Cells were grown in RPMI 1640 (A2780) or DMEM containing GlutaMax-I (MDAMB231), or McCoy’s (HT29) supplemented with 10% FBS and 1% penicillin/streptomycin (Invitrogen, Lisboa, Portugal). All cell lines were kept in a CO2 incubator (Heraeus, Hanau, Germany) with 5% CO2 at 37 °C in a humidified atmosphere. Cell viability was measured using the colorimetric MTT (3-(4,5-dimethylthiazol-2-yl)-2,5-diphenyltetrazolium bromide) assay. For the assays, cells were seeded in 200 μL of complete medium in 96-well plates and incubated at 37 °C for 24 h prior to complex treatment to allow cell adherence. The stock solutions in water (20 mM) of the complexes were freshly prepared and used for sequential dilutions in medium within the concentration range of 10^−10–10^−4 M. Cisplatin was also included in this study as a positive control. After careful removal of the medium, […] of a serial dilution of compounds in fresh medium was added to the cells, and incubation was carried out for 72 h at 37 °C. At the end of the treatment, the medium was discarded, and the cells were incubated with […] of an MTT solution in PBS (0.5 mg mL^−1). After 3 h incubation, medium was removed, and DMSO was added to solubilize the purple formazan crystals formed. The absorbance at 570 nm was measured using a plate spectrophotometer (Power Wave Xs, Bio-Tek, Winooski, VT, USA). Each experiment was repeated at least three times and each concentration tested in at least six replicates. The IC50 values were calculated from dose–response curves analyzed with the GraphPad Prism software (version 5.0).

[7] = tested on: MDAMB231 triple-negative breast cancer cells; assay: MTT cytotoxicity assay, MDAMB231; format: cell-based, human; settings: MDAMB231, 72 h; for IC50: mean ± SD n = 3
Procedure: as §1

HT29 colon cancer cells [8] = assay: MTT cytotoxicity assay, HT29; format: cell-based, human; settings: HT29, 72 h; for IC50: mean ± SD n = 3
Procedure: as §1

Molecule: N.N.[Cl][Pt][Cl] [CisPt, Cisplatin]
- IC50 [1]: 1.9 ± 0.1 µM
- IC50 [2]: 39 ± 5 µM
- IC50 (HT29 colon cancer cells [3]): 7 ± 2 µM

Molecule: O=S(=O)([O-])C(F)(F)F.O=S(=O)([O-])c1cccc(P(c2ccccc2)c2ccccc2)c1.O=S(=O)([O-])c1cccc(P(c2ccccc2)c2ccccc2)c1.[Na+].[Na+].[Ru+2].c1c[nH]cn1.c1cc[cH-]c1 [Compound 1, [RuCp(mTPPMSNa)2(ImH)][CF3SO3]]
- S(H2O) (Solubility in water): 21.4 mg/mL

Molecule: NCCCn1ccnc1.O=S(=O)([O-])C(F)(F)F.O=S(=O)([O-])c1cccc(P(c2ccccc2)c2ccccc2)c1.O=S(=O)([O-])c1cccc(P(c2ccccc2)c2ccccc2)c1.[Na+].[Na+].[Ru+2].c1cc[cH-]c1 [Compound 4, [RuCp(mTPPMSNa)2(3-ApIm)][CF3SO3]]
- S(H2O) (Solubility in water): 48.6 mg/mL
- S(H2O) (Solubility in water; value in brackets): 0.049 M
- Time stable in water ([4]; aqueous solution): 24 h
- Stability in water, Time [4]: 1 days
- Log Po/w [5]: 4.43 ± 0.03

Molecule: COc1ccc(-n2ccnc2)cc1.O=S(=O)([O-])C(F)(F)F.O=S(=O)([O-])c1cccc(P(c2ccccc2)c2ccccc2)c1.O=S(=O)([O-])c1cccc(P(c2ccccc2)c2ccccc2)c1.[Na+].[Na+].[Ru+2].c1cc[cH-]c1 [Compound 5, [RuCp(mTPPMSNa)2(4-MpIm)][CF3SO3]]
- S(H2O) (Solubility in water): 28.8 mg/mL
- S(H2O) (Solubility in water; value in brackets): 0.029 M
- Stability in water, Time [4]: 0.12 days

Molecule: [RuCp(mTPPMSNa)2(1-BI)][CF3SO3] [Compound 2]
- S(H2O) (Solubility in water): 38.6 mg/mL
- S(H2O) (Solubility in water; value in brackets): 0.039 M
- Stability in water, Time [4]: 0.25 days

Molecule: [RuCp(mTPPMSNa)2(1-BuIm)][CF3SO3] [Compound 3]
- S(H2O) (Solubility in water): 42.8 mg/mL
- S(H2O) (Solubility in water; value in brackets): 0.043 M
- Stability in water, Time [4]: 0.12 days

Molecule: [RuCp(mTPPMSNa)(dpk)][CF3SO3] [Compound 7]
- S(H2O) (Solubility in water): 19.3 mg/mL
- S(H2O) (Solubility in water; value in brackets): 0.019 M
- Changes in the UV–vis spectra in aqueous solution ([4]; over 4 days at 37 °C): insignificant
- Stability in water, Time (Days) [4]: >4 ^[b] Days
- Log Po/w [5]: 5.95 ± 0.07
- IC50 [6]: 0.45 ± 0.3 µM
- Cytotoxicity (in words) [7]: not cytotoxic
- IC50 [7]: > 100 µM
- Cytotoxicity (in words) (HT29 colon cancer cells [8]): not cytotoxic
- IC50 (HT29 colon cancer cells [8]): > 100 µM

Molecule: [RuCp(mTPPMSNa)(pbt)][CF3SO3] [Compound 8]
- S(H2O) (Solubility in water): 20.0 mg/mL
- S(H2O) (Solubility in water; value in brackets): 0.02 M
- Stability in water by NMR (in words) ([4]; D2O, 4 days, UV–vis bands decrease due to precipitation): remained intact without the formation of new species
- Stability in water, Time (Days) [4]: >4 ^[b,c] Days
- IC50 [6]: 0.2 ± 0.08 µM
- IC50 [7]: 25.4 ± 5 µM
- IC50 (HT29 colon cancer cells [8]): 11.3 ± 2.4 µM
